What was measured:
hmNPCs [1] = assay: Long-term proliferation: number of living cells (hemocytometer, trypan blue exclusion); format: cell-based, human
Procedure: (§1) To determine long-term proliferation, hmNPCs were plated and expanded for 2 passages with or without addition of various agents (see below) to the custom expansion media containing the growth factors EGF and FGF2. Different fetal midbrain tissues were included in this study. At the end of the proliferation period, differentiation of hmNPCs was induced via replacement of expansion media with mitogen-free media containing 1% FCS, 5 µM forskoline (Sigma-Aldrich Chemie GmbH Munich, Germany), and 100 pg/ml IL-1β (Sigma). The differentiation and expansion media were supplemented with different drugs as appropriate. Prior to immunocytochemistry or protein extraction, hmNPCs were allowed to differentiate for 1 week. To determine short-term proliferation via Ki67 immunostaining, the cells were seeded into 24-well plates (70,000 cells/well) and left overnight to rest. P2 receptor agonists (ATP, UTP, ATP + UTP, ADP, ADPβS) were supplied daily for 5 consecutive days. Ki67/nestin double-positive cells were counted in 8 randomly selected fields of nucleotide-treated or untreated samples. For the assessment of MAPK phosphorylation the cells were kept free of mitogens for 2 d prior to addition of the MEK-inhibitor in expansion media. In addition, the MEK-inhibitor was added during the differentiation period 15 min before UTP administration.
UTP, UDP, ATP, ADP, ADPβS and suramin were purchased from Sigma (Sigma-Aldrich Chemie GmbH Munich, Germany). UTP and UDP were applied at different concentrations (1 µM, 10 µM, 100 µM), ATP at 100 µM, ADP at 100 µM, and ADPβS at100 µM. During expansion of the cells, the nucleotides were renewed once a week with every media change, unless otherwise stated. They were applied once at the beginning of the differentiation period. The P2 receptor antagonist suramin (10 µM) was added to expansion media 30 min prior to addition of UTP (100 µM). The stock solution of the MEK1/2 inhibitor U0126 (Promega Corporation, Mannheim, Germany) was prepared in dimethyl sulfoxide (DMSO) at a concentration of 10 mM. The stock solution was then diluted in 0.1 M PBS to obtain a concentration of 1 mM. MEK inhibitor (final concentration 10 µM) was added to mitogen-free expansion media, 15 min before UTP treatment (1 µM) of hmNPCs.
Cell counting of control (untreated) and treated hmNPCs was performed using a hemocytometer. Adherent cells were collected by detachment with accutase™ (PAA Laboratories, Pasching, Austria) for 10 min at 37°C. […] The number of total and trypan blue-positive cells was then determined by counting at least 300 cells per sample in a hemocytometer.

hmNPCs [2] = assay: Protein content of cell extracts (Bradford method); format: cell-based; settings: Homo sapiens, 336 h, 2 weeks of expansion, read-out: protein yield compared to untreated samples
Procedure: as §1
In order to prepare protein extracts, hmNPCs were collected, washed with ice-cold PBS and lysed in buffer [10 mM HEPES-KOH (pH 7.9), 10 mM KCI, 1.5 mM MgCl2, 0.1% NP-40], supplemented with protease inhibitor cocktail (Roche). After a brief centrifugation at 4°C/10 000×g, protein concentrations and protein yield from extracts were determined using the Bradford method (Bio-Rad, Hercules, CA, USA). To preserve the phosphorylation state of proteins, extracts for the MAPK experiment were obtained using the PhosphoSafe™ extraction reagent containing phophatase inhibitors (Novagen). […] The chemiluminescence was quantified using the AIDA, two-dimensional densitometry software (Raytest lsotopenmeb, Straubenhardt, Germany). […]

hmNPCs [3] = assay: Patch-clamp of voltage-gated potassium and sodium channels in differentiated cells; format: cell-based, human; settings: 100 µM; differentiation for 3 weeks
Procedure: Patch-clamp analyses of hmNPCs was carried out after in vitro differentiation for 3 weeks with or without 100 µM UTP at room temperature using an inverted microscope DMIL (Leica, Bensheim, Germany) and an EPC-9 amplifier (HEKA, Lambrecht, Germany). Recordings of voltage-gated potassium and sodium channels were obtained in the whole-cell voltage-clamp mode by stepwise depolarisations with increasing amplitudes from the holding potential of - 70mV to 50mV in steps of 10mV. Ligand-gated P2X-channels were investigated in the whole-cell voltage-clamp mode by rapid application of 300 µM ADP, ATP, and UTP with a SF-77B perfusion fast-step system (Warner Instruments Inc., Hamden, USA). Series resistance values were continuously measured during all recordings. The external bath solution contained (in mM): 142 NaCl, 1 CaCl2, 8 KCI, 6 MgCl2, 10 Glucose, and 10 HEPES (pH 7.4; 320 mOsm). Micropipettes were formed from thin-walled borosilicate glass (Science Products, Hofheim, Germany) with a Flaming Brown electrode puller P-97 (Sutter Instrument Co., Novato, USA) and a Micro Forge (Narishige, Tokio, Japan). […] Whole cell currents were low-pass filtered at 2-5 kHz, digitized at 10 kHz, and analyzed using PulseFit software (HEKA, Lambrecht, Germany) and Prism 4 (GraphPad Software Inc, San Diego, USA). Numerical data were expressed as mean ± SEM. […]

With O=c1ccn([C@@H]2O[C@H](COP(=O)(O)OP(=O)(O)OP(=O)(O)O)[C@@H](O)[C@H]2O)c(=O)[nH]1 [UTP, uridine 5'-triphosphate] the “number of living cells” value (hmNPCs [1]; 100 µM each, 2 weeks in expansion media, on coapplication ADP 30 min before UTP, 20160 min) was 110 ± 6%, the activity at 1 µM (hmNPCs [1]; Homo sapiens, 336 h, 1 µM, 2 passages (approximately 2 weeks of expansion), control 100 ± 5%, read-out: number of living cells as compared to controls) was 152 ± 6% and the “performance of proliferating hmNPCs grown without mitogens” value (hmNPCs [1]; without EGF and FGF2, 1 µM once in 5 days) was “performed slightly better”. The activity at 1 µM (hmNPCs [2]; 1 µM) was 165%, the activity at 10 µM (hmNPCs [2]; 10 µM) was 125% and the activity at 100 µM (hmNPCs [2]; 100 µM) was 113%. The “maximal potassium and sodium current amplitudes, treated vs untreated” value (hmNPCs [3]) was “no significant difference”.

Source: EP1897937A1, “Method of culturing NPCs” (NeuroProgen GmbH Leipzig, priority 2006, dated 2008)
